In patent US11105794B2, “In vitro nephrotoxicity screening assay” (Hoffmann-La Roche Inc., priority 2016, dated 2021):

Experiments:
PTEC-TERT1 cells = experiment: EGF assay, supernatant of PTEC-TERT1 cells; details: for Toxicity grade: from EGF, assay window saline vs toxic reference compound 4-1
Protocol: Prior to treatment with oligonucleotides the PTEC-TERT1 were seeded into collagen I-coated 96-well plates (Corning, 356407) at a density of 40 000 and 20 000 cells/well respectively in PTEC medium and grown until confluence.
Oligonucleotides were dissolved in PBS and added to the cell culture at the given concentration, such as 10, 30 or 100 μM. The total volume of each well was 100 μl. PBS served as vehicle control.
When extra cellular markers, like EGF and KIM-1, were analyzed following the oligonucleotide treatment the medium was collected and stored at −20° C. until further analysis. […] The collected medium was stored at −20° C.
For analysis of human EGF, cell supernatants were thawed on ice, diluted 1:2 and 1:10 in sample dilution buffer (BioRad catalog # M60-009RDPD) and analyzed by Luminex®-based ELISA using human EGF beads (Bio-Plex Pro™ Human Cancer Biomarker Panel 2 EGF Set#171BC603M), or followed by analysis using the Bio-Plex® 200 Systems (BioRad) according to the manufacturer's instructions. Data are reported as mean concentrations and standard deviations of triplicate wells.

[1] = system: Primary human hepatocytes; experiment: EGF assay, culture media of primary human hepatocytes; format: cell-based; details: 10 ng/ml EGF in medium;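 further: values as percent of saline vehicle control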
Protocol: Cryopreserved human hepatocytes were suspended in William's Medium E (WME) without phenol red (Sigma W-1878) supplemented with 10% fetal calf serum, penicillin (100 U/ml), streptomycin (0.1 mg/ml) at a density of approx. 1×10^6 cells/ml and seeded into collagen-coated 96-well plates (Becton Dickinson AG, Allschwil, Switzerland) at a density of 0.4×10^5 cells/well. Cells were pre-cultured for 3 to 4 h allowing for attachment to cell culture plates before start of treatment with oligonucleotides.
Before oligonucleotide treatment the seeding medium was replaced by 90 μl of serum free WME.
The total volume of each well was 100 μl. PBS served as vehicle control.
Human primary hepatocytes were cultivated as described in the “Materials and methods” section with addition of 10 ng/ml of EGF to the medium. At confluence the cells were treated with oligonucleotide as described in the “Materials and methods” section, in concentrations of 10 or 100 μM.
The medium was obtained at day 3, and the EGF level was measured according to the assay described in the “Materials and methods” section.

A549 cells [2] = experiment: EGF assay, A549 cells transfected with oligonucleotide; format: cell-based, human; details: A549, 48 hours after transfection;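 further: values as percent of saline control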
Protocol: (§1) A549 cells (ATCC CCL-185) were cultivated according to the manufacturer's instructions in A549 medium [F-12K Nut Mix (Gibco, 21127-022), 1% penicillin/streptomycin (Gibco: 15140-122), 10% FBS (Gibco 16000-044)].
(§2) Prior to treatment with oligonucleotides the A549 cells were seeded in 96 well plates at 3′000 cells per well in A549 regular medium and grown until 60% confluence. […]
(§3) A549 were cultivated as described in the “Materials and methods” section. At after at 50-60% confluence the oligonucleotides were transfected into the cells using 0.5 μl Lipofectamin (Invitrogen, 11668-019) in 25 μl OptiMEM® (GIBCO 31985062) and 1 ng or 10 ng oligonucleotide in the same volume OptiMEM. The cells were incubated over night at 37° C. The medium was changed using A459 regular medium+10 ng/ml EGF. 48 hours after transfection the medium was collected for EGF measurements and the cells were harvested for ATP measurements.

A549 cells [3] = experiment: Intracellular ATP assay, A549 cells transfected with oligonucleotide; format: cell-based, human; details: A549, 48 hours after transfection;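 further: ATP as percent of saline control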
Protocol: as §1, §2
Each sample was tested in triplicate.
as §3

[4] = PTEC-TERT1, Day 6, 10 μM (Table 4)
[5] = PTEC-TERT1, Day 6, 30 μM (Table 4)
[6] = PTEC-TERT1, Day 6, 100 μM (Table 4)
[7] = PTEC-TERT1, 6 days, 10 μM oligonucleotide (Table 7)
[8] = PTEC-TERT1, 6 days, 30 μM oligonucleotide (Table 7)

Substance | EGF (PTEC-TERT1 cells; [4]) | EGF (PTEC-TERT1 cells; [5]) | EGF (PTEC-TERT1 cells; [6]) | EGF (PTEC-TERT1 cells; [7]) | Toxicity grade (PTEC-TERT1 cells; PTEC-TERT1, 6 days, 10 μM) | EGF (PTEC-TERT1 cells; [8]) | Toxicity grade (PTEC-TERT1 cells; PTEC-TERT1, 6 days, 30 μM) | further results
CGTttgtgctcgaTAA (CGTTTGTGCTCGATAA; chemistry not given here) [Compound 16-1] | 394 % saline | 509 % saline | 707 % saline | – | – | – | – | –
CTAtgtgttccTGT (CTATGTGTTCCTGT; chemistry not given here) [Compound 15-1] | 38 % saline | 76 % saline | 234 % saline | – | – | – | – | –
TTTacacttgaCCC (TTTACACTTGACCC; chemistry not given here) [Compound 13-1] | 27 % saline | 29 % saline | 39 % saline | – | – | – | – | –
GCCtcccagttccTTT (GCCTCCCAGTTCCTTT; chemistry not given here) [Compound 9-1] | 220 % saline | 284 % saline | 1593 % saline | – | – | – | – | –
ACTgcrtttcrcacrtCTG (antisense ACTGCTTTCCACTCTG; LNA gapmer, stereodefined phosphorothioates, chemistry not fully specified) [Compound 8-3] | – | – | – | 869 % saline | 32 | 3416 % saline | 46 | –
GTCagaaacaaccACC (GTCAGAAACAACCACC; chemistry not given here) [Compound 14-1] | – | – | – | – | – | – | – | EGF ([1]; day 3, 10 μM): 139 % saline; EGF ([1]; day 3, 100 μM): 220 % saline
CACattscscttsgsctCTG (antisense CACATTCCTTGCTCTG; LNA gapmer, stereodefined phosphorothioates, chemistry not fully specified) [Compound 10-4] | – | – | – | 60 % saline | 1 | 157 % saline | 1 | –
CATtgcattgtttCCG (CATTGCATTGTTTCCG; chemistry not given here) [Compound 19-1] | 317 % saline | 310 % saline | 413 % saline | – | – | – | – | –
CACattrcrcttrgrctCTG (antisense CACATTCCTTGCTCTG; LNA gapmer, stereodefined phosphorothioates, chemistry not fully specified) [Compound 10-5] | – | – | – | 369 % saline | 13 | 1069 % saline | 14 | –
TAAggcaatcaagGTA (TAAGGCAATCAAGGTA; chemistry not given here) [Compound 5-1] | – | – | – | – | – | – | – | EGF (PTEC-TERT1 cells; PTEC-TERT1, Day 3, 11 μM (Table 3)): 174 % saline; EGF (PTEC-TERT1 cells; PTEC-TERT1, Day 3, 33 μM (Table 3)): 222 % saline; EGF (PTEC-TERT1 cells; PTEC-TERT1, Day 3, 100 μM (Table 3)): 182 % saline; EGF (PTEC-TERT1 cells; PTEC-TERT1, Day 7, 11 μM (Table 3)): 158 % saline; EGF (PTEC-TERT1 cells; PTEC-TERT1, Day 7, 33 μM (Table 3)): 249 % saline; EGF (PTEC-TERT1 cells; PTEC-TERT1, Day 7, 100 μM (Table 3)): 754 % saline; EGF (PTEC-TERT1 cells; PTEC-TERT1, Day 10, 11 μM (Table 3)): 54 % saline; EGF (PTEC-TERT1 cells; PTEC-TERT1, Day 10, 33 μM (Table 3)): 210 % saline; EGF (PTEC-TERT1 cells; PTEC-TERT1, Day 10, 100 μM (Table 3)): 720 % saline
CACattccttgctCTG (CACATTCCTTGCTCTG; chemistry not given here) [Compound 10-1] | 73 % saline | 330 % saline | 783 % saline | 305 % saline | 11 | 1283 % saline | 17 | EGF ([1]; day 3, 10 μM): 145 % saline; EGF ([1]; day 3, 100 μM): 574 % saline
CATtgcattgttTCCG (CATTGCATTGTTTCCG; chemistry not given here) [Compound 19-2] | 370 % saline | 606 % saline | 770 % saline | – | – | – | – | –
ACTgcstttcscacstCTG (antisense ACTGCTTTCCACTCTG; LNA gapmer, stereodefined phosphorothioates, chemistry not fully specified) [Compound 8-2] | – | – | – | 5723 % saline | 219 | 25199 % saline | 347 | –
CACattrccttrgctrCTrG (antisense CACATTCCTTGCTCTG; LNA gapmer, stereodefined phosphorothioates, chemistry not fully specified) [Compound 10-3] | – | – | – | 248 % saline | 9 | 1740 % saline | 23 | –
ATTgcattgtttcCGT (ATTGCATTGTTTCCGT; chemistry not given here) [Compound 18-1] | 223 % saline | 203 % saline | 290 % saline | – | – | – | – | –
CGTttgtgctcgATA (CGTTTGTGCTCGATA; chemistry not given here) [Compound 17-1] | 342 % saline | 550 % saline | 693 % saline | – | – | – | – | –
CACattsccttsgctsCTsG (antisense CACATTCCTTGCTCTG; LNA gapmer, stereodefined phosphorothioates, chemistry not fully specified) [Compound 10-2] | – | – | – | 93 % saline | 3 | 156 % saline | 1 | –
TGCtcaacatcAAG (TGCTCAACATCAAG; chemistry not given here) [Compound 11-1] | 38 % saline | 127 % saline | 371 % saline | – | – | – | – | EGF ([1]; day 3, 10 μM): 184 % saline; EGF ([1]; day 3, 100 μM): 458 % saline
TTAcacttgacCCA (TTACACTTGACCCA; chemistry not given here) [Compound 12-1] | 19 % saline | 27 % saline | 71 % saline | – | – | – | – | –
CAAaggaaacacaCAT (CAAAGGAAACACACAT; chemistry not given here) [Compound 6-1] | 78 % saline | 90 % saline | 118 % saline | – | – | – | – | –
CAAatgctgaaacTAT (CAAATGCTGAAACTAT; chemistry not given here) [Compound 7-1] | 37 % saline | 40 % saline | 67 % saline | – | – | – | – | –
ACTgctttccactCTG (ACTGCTTTCCACTCTG; chemistry not given here) [Compound 8-1] | 1153 % saline | 1359 % saline | 1545 % saline | 8412 % saline | 323 | 15126 % saline | 208 | EGF (A549 cells [2]; 1 ng oligonucleotide): 140 % saline; EGF (A549 cells [2]; 10 ng oligonucleotide): 233 % saline; ATP (A549 cells [3]; 1 ng oligonucleotide): 101 % saline; ATP (A549 cells [3]; 10 ng oligonucleotide): 58 % saline
